Assay results from patent US10772859B2, “Methods of targeting APE/Ref-1 to inhibit hypoxia signaling genes” (Indiana University Research and Technology Corporation, priority 2015, dated 2020).
Where two headings read alike, the source gives them in different places.

How the values were obtained:
[1] = test system: CA9 mRNA; details: Panc-1 and MIA-PaCa2 cells exposed to hypoxia, previously shown; cited from earlier work
[2] = test system: CA9 protein; assay: Western blot of CA9 protein in 3D tumor spheroid cultures with or without CAFs; assay type: cell-based, human; details: Pa03C 3D tumor cultures, in the presence and absence of CAF cells
Protocol: Western Blot Analysis: Western blots were performed as described in Wang, Luo et al. (2004) Mol Cancer Ther 3(6): 679-686; Fishel, He et al. (2008) DNA Repair (Amst) 7(2): 177-186; Fishel, Colvin et al. (2010) Hematol 38(12): 1178-1188; Jiang, Zhou et al. (2010) Cancer Investigation 28(9): 885-895; Fishel, Jiang et al. (2011) Molecular Cancer Therapeutics 10(9): 1698-1708; Cardoso, Jiang et al. (2012) PLoS ONE 10: e47462; Fishel, Wu et al. (2015) J Biol Chem 290(5): 3057-3068, with antibodies for APE1/Ref-1 (Novus Biologicals; Littleton, Colo.), HIF1α (GeneTex; Irvine, Calif.), STAT1, STATS, (Cell Signaling; Danvers, Mass.), NFκB (abcam; Cambridge, Mass.), CA9 (Santa Cruz; Dallas, Tex.) and Vinculin (Sigma; St. Louis, Mo.).
3D Co-Cultures: Ultra low attachment 96-well plates (Corning Inc., Life Sciences) were used to generate 3-dimensional tumor spheroids in the presence and absence of CAFs (75 μL/well) as described previously (Sempere, Gunn et al. (2011) Cancer Biol Ther 12(3): 198-207; Arpin, Mac et al. (2015) Molecular Cancer Therapeutics). […] On Day 12, spheroids were analyzed using Thermo ArrayScan high-content imaging system (Lovborg, Nygren et al. (2004) Mol Cancer Ther 3(5): 521-526; Lindblom, Berg et al. (2012) Toxicol Pathol 40(1): 18-32). […]

[3] = test system: Pa03C and Panc10.05 tumor spheroids with or without CAFs; assay: 3D co-culture tumor spheroid model (Example 1); assay type: cell-based, human; details: for tumor cell killing (reduction in area of tumor cells): 3D spheroids, 12 days in culture, with and without CAFs
Protocol: 3D Co-Cultures: Ultra low attachment 96-well plates (Corning Inc., Life Sciences) were used to generate 3-dimensional tumor spheroids in the presence and absence of CAFs (75 μL/well) as described previously (Sempere, Gunn et al. (2011) Cancer Biol Ther 12(3): 198-207; Arpin, Mac et al. (2015) Molecular Cancer Therapeutics). Cells were stably transduced with EGFP (green) or TdTomato (red) as indicated to preserve the genetic characteristics of the low passage patient cells (Jones, Zhang et al. (2008) Science 321(5897): 1801-1806). Cells were re-suspended in colorless DMEM growth media containing 3% Reduced Growth Factor Matrigel (RGF, BD Biosciences) and 5% FBS. Following plating, cells were treated on Days 4 and 8 with media containing 5% serum, 3% RGF Matrigel, and inhibitors as indicated. On Day 12, spheroids were analyzed using Thermo ArrayScan high-content imaging system (Lovborg, Nygren et al. (2004) Mol Cancer Ther 3(5): 521-526; Lindblom, Berg et al. (2012) Toxicol Pathol 40(1): 18-32). Images of 3D structures were captured by ArrayScan using a 2.5× objective for TdTomato and EGFP; then 2D projections were processed to quantify differences in total intensity and total area of both CAFs and tumor.

[4] = test system: Pa02C cells; assay: Alamar Blue cell proliferation in monolayer under hypoxia; assay type: cell-based, human; details: hypoxia (0.2%) for six days, single agent
Protocol: Cell Proliferation: PDAC cell proliferation in monolayer was measured using the Alamar Blue assay as described in Fishel, Wu et al. (2015) J Biol Chem 290(5): 3057-3068. Cells treated with APX3330 and SLC-0111 were exposed to hypoxia for six days followed by addition of Alamar Blue reagent (Invitrogen) and subsequent fluorescence analysis. Fold change refers to the fluorescence reading for cells treated with indicated inhibitors compared to cells growing in normal media.

[5] = test system: CA9 mRNA; assay: qRT-PCR of CA9 mRNA levels under hypoxia; assay type: cell-based, human; details: 24 hours of exposure to APX3330 and 1% oxygen
Protocol: qRT-PCR Reactions: qRT-PCR was used to measure the mRNA expression levels of CA9 as described in Fishel, Jiang et al. (2011) Molecular Cancer Therapeutics 10(9): 1698-1708. Cells were treated with APE1/Ref-1 siRNA or increasing amounts of APX3330 in the presence or absence of hypoxia (1% and 0.2% O2) for 24 hours, then total RNA was extracted from cells using the QiagenRNeasy Mini kit (Valencia, Calif.). First-strand cDNA synthesis and quantitative PCR were performed as described in Fishel, Vasko et al. (2007) Mutat Res 614(1-2): 24-36; Jiang, Guo et al. (2009) DNA Repair (Amst) 8(11): 1273-1282; Fishel, Jiang et al. (2011) Molecular Cancer Therapeutics 10(9): 1698-1708. The relative quantitative mRNA level was determined using the comparative Ct method using 18S rRNA, RPLPO, and B2M as reference genes (Livak and Schmittgen (2001) Methods 25(4): 402-408; Fishel, Vasko et al. (2007) Mutat Res 614(1-2): 24-36; Jiang, Guo et al. (2009) DNA Repair (Amst) 8(11): 1273-1282). The primers for CA9, 18S, RPLPO, and B2M are commercially available (Applied Biosystems).

[6] = test system: PDAC tumor spheroids (Pa03C and Panc10.05) alone and with CAFs; assay: Three-dimensional growth assay, PDAC/CAF co-culture (Example 2); assay type: cell-based, human; details: tumor spheroids alone and in culture with CAFs
Protocol: Ninety-six well plates were coated with 1% Noble Agar (Difco) (50 μL/well). mCherry-labeled PDAC cells and EGFP-labeled CAFs were resuspended in normal growth media containing 3% Matrigel (BD Biosciences) at a cell ratio of 1:4 (tumor:CAF) and plated on top of solidified 1% Noble Agar. Cells were fed on Days 4 and 8 following plating with media containing 5% serum+3% Matrigel+investigational drug.
Utilizing APX3330, JAK 2 inhibitor (Ruxolitinib (INCB018424; Fisher Scientific) (“RUX”)) and lead STATS inhibitors (PG-S3-001, DR-4-89), the effects of Ref-1/STAT3 inhibition in PDAC low passage patient-derived cell lines (Pa03C and Panc10.05) were evaluated. The response using proliferation-based 3D co-culture assays and statistical analyses to assess synergy, additively or antagonism was evaluated using the Chou-Talalay method.
This Example was designed to visualize the same live co-cultures over 12 days with images captured by Thermo ArrayScan at 8 and 12 days of co-culture. Cancer and stromal cells in this model were marked with distinct fluorescent proteins (mCherry for tumor and EGFP for CAFs) so that the cell populations could be differentiated and quantified. […] In this way, drug efficacy of PDAC cells could be evaluated in co-culture with CAFs, which more faithfully mimics the natural in vivo PDAC environment.

[7] = test system: PDAC; assay: Single-agent STAT3 inhibitor activity in vivo (FIG. 14)

| Structure (SMILES) | CA9 mRNA levels [1] | CA9 expression (protein) [2] | tumor cell killing (reduction in area of tumor cells) [3] | PDAC cell proliferation [4] | CA9 mRNA levels ([5]; Pa03C cells) | CA9 mRNA levels ([5]; pancreatic CAF cells) | killing of tumor spheroids [6] | activity in vivo [7] | cell killing in tumor cells versus CAFs ([3]; 3D co-culture, especially CAF19 with Pa03C) |
| --- | --- | --- | --- | --- | --- | --- | --- | --- | --- |
| CCCCCCCCCC(=CC1=C(C)C(=O)C(OC)=C(OC)C1=O)C(=O)O [APX3330] | decreases | decreased CA9 expression in 3D tumor cultures in a dose-dependent manner | decrease in tumor cell area | dose-dependent decrease | attenuated in a dose-dependent manner | attenuated in a dose-dependent manner | effectively killed both tumor spheroids alone and in culture with CAFs |  |  |
| CC(C)C(C(=O)N(Cc1ccc(C2CCCCC2)cc1)c1ccc(C(=O)O)cc1)N(C)S(=O)(=O)c1c(F)c(F)c(F)c(F)c1F (centres unmarked) [PG-S3-001, reference compound] |  |  |  |  |  |  | effectively killed both tumor spheroids alone and in culture with CAFs | some activity was observed in vivo |  |
| NS(=O)(=O)c1ccc(NC(=O)Nc2ccc(F)cc2)cc1 [SLC-0111] |  |  | dramatic effects on tumor cell killing observed at lower doses than in a monolayer |  |  |  |  |  | more dramatic in the tumor cells than in the CAFs |
